This data set concerns the target ATP-dependent translocase ABCB1 (Homo sapiens, UniProt P08183). Briefly: TP_TRANSPORTER: drug resistance (vinblastine) in KB-V1 cells. The data set is classed as functional, cell-based.

ATP-dependent translocase ABCB1, sequence (P08183 whole entry): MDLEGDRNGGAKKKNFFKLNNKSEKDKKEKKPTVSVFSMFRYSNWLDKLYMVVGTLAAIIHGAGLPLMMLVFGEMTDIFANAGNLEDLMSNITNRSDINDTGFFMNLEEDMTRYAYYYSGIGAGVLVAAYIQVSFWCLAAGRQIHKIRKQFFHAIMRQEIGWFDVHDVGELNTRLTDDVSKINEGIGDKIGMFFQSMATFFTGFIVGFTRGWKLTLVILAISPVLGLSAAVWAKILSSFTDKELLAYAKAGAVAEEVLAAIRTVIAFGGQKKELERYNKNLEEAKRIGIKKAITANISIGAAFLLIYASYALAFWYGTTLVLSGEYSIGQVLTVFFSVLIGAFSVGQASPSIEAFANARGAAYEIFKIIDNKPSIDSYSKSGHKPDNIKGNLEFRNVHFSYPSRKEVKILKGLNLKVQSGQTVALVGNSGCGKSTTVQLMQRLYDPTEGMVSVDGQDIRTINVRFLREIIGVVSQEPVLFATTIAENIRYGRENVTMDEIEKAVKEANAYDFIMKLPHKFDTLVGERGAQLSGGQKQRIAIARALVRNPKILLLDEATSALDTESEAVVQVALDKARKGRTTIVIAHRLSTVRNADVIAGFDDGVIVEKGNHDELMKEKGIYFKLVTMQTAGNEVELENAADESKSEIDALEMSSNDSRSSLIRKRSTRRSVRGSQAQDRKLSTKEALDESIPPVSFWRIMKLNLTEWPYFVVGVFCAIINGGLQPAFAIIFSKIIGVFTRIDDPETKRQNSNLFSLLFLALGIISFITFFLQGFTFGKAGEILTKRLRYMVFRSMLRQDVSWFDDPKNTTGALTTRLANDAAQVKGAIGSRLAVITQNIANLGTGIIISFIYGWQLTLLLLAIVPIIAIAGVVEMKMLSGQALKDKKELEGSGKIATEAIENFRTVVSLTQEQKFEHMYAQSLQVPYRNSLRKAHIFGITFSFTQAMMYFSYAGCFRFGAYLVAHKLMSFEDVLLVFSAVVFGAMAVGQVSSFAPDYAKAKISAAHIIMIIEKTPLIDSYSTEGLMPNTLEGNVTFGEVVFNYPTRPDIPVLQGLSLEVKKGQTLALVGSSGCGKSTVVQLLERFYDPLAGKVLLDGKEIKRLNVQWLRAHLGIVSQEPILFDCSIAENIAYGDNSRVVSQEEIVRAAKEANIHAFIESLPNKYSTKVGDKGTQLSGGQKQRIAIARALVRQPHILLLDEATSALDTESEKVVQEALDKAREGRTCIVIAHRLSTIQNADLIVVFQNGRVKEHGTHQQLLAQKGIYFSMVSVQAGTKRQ

With BITTER MELON LEAF EXTRACT, the Activity result is “inhibitor [+]”.
